What is called Ki is the equilibrium dissociation constant of an inhibitor or competing ligand from its target. A high value points to weaker binding.

Results on twelve compounds are retold here after US7314885B2, “Pyrrole compounds useful as kinase inhibitors” (Vertex Pharmaceuticals Incorporated, priority 2003, dated 2008).

Each structure is given as a SMILES string.

Chain of c-Met (P08581 25-1390): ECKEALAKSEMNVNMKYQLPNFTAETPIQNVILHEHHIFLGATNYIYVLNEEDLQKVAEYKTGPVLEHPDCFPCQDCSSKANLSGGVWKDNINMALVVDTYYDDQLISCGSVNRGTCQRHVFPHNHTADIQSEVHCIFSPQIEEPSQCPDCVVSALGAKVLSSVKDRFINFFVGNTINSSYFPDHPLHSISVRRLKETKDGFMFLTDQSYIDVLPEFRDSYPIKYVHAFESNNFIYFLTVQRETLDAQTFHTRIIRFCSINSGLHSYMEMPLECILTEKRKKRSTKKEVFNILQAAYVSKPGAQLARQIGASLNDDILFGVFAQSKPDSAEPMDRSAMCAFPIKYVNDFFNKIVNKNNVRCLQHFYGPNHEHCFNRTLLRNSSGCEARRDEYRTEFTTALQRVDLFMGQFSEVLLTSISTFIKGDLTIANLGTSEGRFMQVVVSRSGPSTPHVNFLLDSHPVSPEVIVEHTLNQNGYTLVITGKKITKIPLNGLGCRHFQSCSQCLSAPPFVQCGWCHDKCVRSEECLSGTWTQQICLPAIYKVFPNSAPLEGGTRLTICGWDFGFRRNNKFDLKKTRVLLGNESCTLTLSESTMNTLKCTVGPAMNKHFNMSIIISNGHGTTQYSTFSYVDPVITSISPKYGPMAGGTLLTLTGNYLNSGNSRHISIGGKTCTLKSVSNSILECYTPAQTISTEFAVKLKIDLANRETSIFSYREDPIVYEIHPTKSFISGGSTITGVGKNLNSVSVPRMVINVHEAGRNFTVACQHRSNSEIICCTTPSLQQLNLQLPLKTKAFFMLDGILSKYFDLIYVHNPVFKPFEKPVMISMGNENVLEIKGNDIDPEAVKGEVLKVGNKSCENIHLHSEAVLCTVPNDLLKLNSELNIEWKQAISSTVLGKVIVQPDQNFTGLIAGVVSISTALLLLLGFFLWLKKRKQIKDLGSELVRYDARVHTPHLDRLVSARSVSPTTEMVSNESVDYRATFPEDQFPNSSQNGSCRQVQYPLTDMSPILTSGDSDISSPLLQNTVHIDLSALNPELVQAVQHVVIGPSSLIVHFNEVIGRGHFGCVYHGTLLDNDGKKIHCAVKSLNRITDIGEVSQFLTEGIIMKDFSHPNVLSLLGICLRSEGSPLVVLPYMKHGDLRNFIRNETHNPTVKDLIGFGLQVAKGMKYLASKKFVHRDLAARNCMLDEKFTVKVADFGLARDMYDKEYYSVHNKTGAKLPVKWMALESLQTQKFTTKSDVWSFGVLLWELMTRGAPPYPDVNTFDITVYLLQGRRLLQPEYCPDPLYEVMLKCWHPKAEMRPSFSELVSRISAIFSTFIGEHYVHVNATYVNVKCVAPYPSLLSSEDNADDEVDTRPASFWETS

This experiment addresses c-Met (Homo sapiens, UniProt P08581). In words: Ki determination for the inhibition of c-Met (coupled enzyme system). The experiment is classed as biochemical. To be noted: coupled enzyme assay; 200 μM ATP, 10 μM polyGluTyr, 80 nM c-Met, 30° C. The procedure:
Ki Determination for the Inhibition of c-Met
Compounds were screened for their ability to inhibit c-Met kinase activity using a standard coupled enzyme system (Fox et al., Protein Sci. 1998, 7, 2249). Reactions were carried out in a solution containing 100 mM HEPES (pH 7.5), 10 mM MgCl2, 25 mM NaCl, 300 μM NADH, 1 mM DTT, and 1.5% DMSO. Final substrate concentrations in the assay were 200 μM ATP (Sigma Chemicals, St Louis, Mo.) and 10 μM polyGluTyr (Sigma Chemical Company, St. Louis). Reactions were carried out at 30° C. and 80 nM c-Met. Final concentrations of the components of the coupled enzyme system were 2.5 mM phosphoenolpyruvate, 300 μM NADH, 30 μg/ml pyruvate kinase and 10 μg/ml lactate dehydrogenase.
An assay stock buffer solution was prepared containing all of the reagents listed above with the exception of ATP and a test compound of the present invention. The assay stock buffer solution (175 μl) was incubated in a 96 well plate with 5 μl of the test compound of the present invention at final concentrations spanning 0.006 μM to 12.5 μM at 30° C. for 10 minutes. Typically, a 12-point titration was conducted by preparing serial dilutions (from 10 mM compound stocks) with DMSO of the test compounds of the present invention in daughter plates. The reaction was initiated by the addition of 20 μl of ATP (final concentration 200 μM). Rates of reaction were obtained using a Molecular Devices Spectramax plate reader (Sunnyvale, Calif.) over 10 minutes at 30° C. The Ki values were determined from the rate data as a function of inhibitor concentration.
For `O=C(c1cc(-c2[nH]nnc2-c2cccc(F)c2F)c[nH]1)N1CCCC1` [Compound I-47], the Ki is 1 to 10 µM.
To `O=C(c1cc(-n2nnnc2-c2cccc(F)c2F)c[nH]1)N1CC=CC1` [Compound I-38, (4-(5-(2,3-difluorophenyl)-1H-tetrazol-1-yl)-1H-pyrrol-2-yl)(2H-pyrrol-1(5H)-yl)methanone] belongs 1 to 10 µM.
For `O=C(NC[C@@H]1CCCO1)c1cc(-c2nnnn2-c2cccc(F)c2F)c[nH]1` (stereo in doubt) [Compound I-24, 4-[1-(2,3-Difluoro-phenyl)-1H-tetrazol-5-yl]-1H-pyrrole-2-carboxylic acid (tetrahydro-furan-2-ylmethyl)-amide], the Ki lay in the range of 1 to 10 µM.
In turn, `O=C(NC[C@@H]1CCCO1)c1cc(-c2cncn2-c2cccc(F)c2F)c[nH]1` (stereo in doubt) [Compound I-16, 4-[3-(2,3-Difluoro-phenyl)-3H-imidazol-4-yl]-1H-pyrrole-2-carboxylic acid (tetrahydro-furan-2-ylmethyl)-amide] yielded a Ki of 1 to 10 µM.
To `O=C(NC[C@@H]1CCCO1)c1cc(-c2cnoc2-c2cccc(F)c2F)c[nH]1` [Compound I-4, 4-[5-(2,3-Difluoro-phenyl)-isoxazol-4-yl]-1H-pyrrole-2-carboxylic acid (S-tetrahydro-furan-2-ylmethyl)-amide] belongs 1 to 10 µM; to `O=C(c1cc(-c2nncn2-c2cccc(F)c2F)c[nH]1)N1CC=CC1` [Compound I-37, (4-(4-(2,3-difluorophenyl)-4H-1,2,4-triazol-3-yl)-1H-pyrrol-2-yl)(2H-pyrrol-1(5H)-yl)methanone], above 10 µM.
The compound `O=C(NC[C@@H]1CCCO1)c1cc(-c2nncn2-c2cccc(Cl)c2Cl)c[nH]1` [Compound I-39] yielded a Ki of 1 to 10 µM.
To `O=C(NCCCn1ccnc1)c1cc(-c2nncn2-c2cccc(Cl)c2Cl)c[nH]1` [Compound I-41] belongs 1 to 10 µM; to `O=C(NC[C@@H]1CCCO1)c1cc(-n2cncc2-c2cccc(F)c2F)c[nH]1` [Compound I-10, 4-[5-(2,3-Difluoro-phenyl)-imidazol-1-yl]-1H-pyrrole-2-carboxylic acid (S-tetrahydro-furan-2-ylmethyl)-amide], 1 to 10 µM; to `O=C(NC[C@@H]1CCCO1)c1cc(-c2sncc2-c2cccc(F)c2F)c[nH]1` [Compound I-46, 4-(4-(2,3-difluorophenyl)isothiazol-5-yl)-N-(((S)-tetrahydrofuran-2-yl)methyl)-1H-pyrrrole-2-carboxamide], 1 to 10 µM.
Turning to `O=C(c1cc(-c2nncn2-c2cccc(Cl)c2Cl)c[nH]1)N1CC=CC1` [Compound I-40], the inhibition constant (Ki) was in the range of 1 to 10 µM.
Regarding `O=C(NCCCn1ccnc1)c1cc(-n2cnnc2-c2cccc(F)c2F)c[nH]1` [Compound I-44, N-(3-(1H-imidazol-1-yl)propyl)-4-(3-(2,3-difluorophenyl)-4H-1,2,4-triazol-4-yl)-1H-pyrrole-2-carboxamide], the inhibitory constant (Ki) is above 10 µM.
